Legend:
[1] = biological target: T1, LRRK2-G2019S(human) (Homo sapiens, UniProt Q5S007, G2019S); test: LRRK2-G2019S Kinase activity assay (Lanthascreen TR-FRET); assay type: biochemical; details: full-length LRRK2 G2019S, LRRKtide substrate, 1.1mM ATP
T1 construct: DYKDDDDK (FLAG)
Description: LRRK2-G2019S Kinase activity assay: The measurements of the activities were made using a LRRK2-G2019S(human) Kinase activity assay as described hereunder. The potency of compounds was evaluated in vitro using the Lanthascreen® technology (ThermoFisher Scientific).
The biological assay requires the […]-tagged full-length LRRK2 G2019S protein, the fluorescent peptide substrate named LRRKtide or ERM ([…] supplied by PolyPeptide Group), the ATP substrate, and different concentrations of test compounds. In a typical experiment, the reaction assay buffer contains 50mM Tris pH8.2, 1mM EGTA, 2.5mM MgCl2, 0.05% Triton X100, 0.15% BSA and 1mM DTT. The detection of the assay is performed using 1nM Terbium labeled anti-phospho-LRRKtide (ThermoFisher Scientific) diluted in a TR-FRET buffer (ThermoFisher Scientific).
The experimental procedure was performed with Greiner small volume® 384-well. The assay is started by a pre-incubation step of full-length LRRK2 G2019S mutant protein with reaction assay buffer and a dilution series of test compound for at least 30 minutes at room temperature. The working solution of compounds was prepared in a separate Greiner microplate.
The kinase reaction was initiated by addition of the ATP/LRRKtide substrate mix diluted in the reaction assay buffer. The reaction mix was incubated for at least 10 minutes at room temperature (initial velocity conditions). Reaction was stopped by addition of Terbium labeled anti-phospho-LRRKtide diluted into the detection buffer supplemented with EDTA (ThermoFisher Scientific). Plates are incubated for at least 30 minutes at room temperature and read on an Envision™ multimode plate reader (PerkinElmer) with LanthaScreen™. The TR-FRET 520:495 nm emission ratio was calculated and used to determine the IC50 value from a dose response curve fit to the 4-parameter logistic equation. The activity with respect to LRRK2 kinase in this test is given by the concentration which inhibits 50% of the LRRK2 activity (or IC50) in nM.

[2] = biological target: LRRK2(human) WT (Homo sapiens, UniProt Q5S007); test: LRRK2 WT assay (assay A), Lanthascreen TR-FRET; assay type: biochemical; details: assay A (values without "*"): full-length LRRK2 wild type, 500uM ATP
Sequence of LRRK2(human) WT (Q5S007 whole entry): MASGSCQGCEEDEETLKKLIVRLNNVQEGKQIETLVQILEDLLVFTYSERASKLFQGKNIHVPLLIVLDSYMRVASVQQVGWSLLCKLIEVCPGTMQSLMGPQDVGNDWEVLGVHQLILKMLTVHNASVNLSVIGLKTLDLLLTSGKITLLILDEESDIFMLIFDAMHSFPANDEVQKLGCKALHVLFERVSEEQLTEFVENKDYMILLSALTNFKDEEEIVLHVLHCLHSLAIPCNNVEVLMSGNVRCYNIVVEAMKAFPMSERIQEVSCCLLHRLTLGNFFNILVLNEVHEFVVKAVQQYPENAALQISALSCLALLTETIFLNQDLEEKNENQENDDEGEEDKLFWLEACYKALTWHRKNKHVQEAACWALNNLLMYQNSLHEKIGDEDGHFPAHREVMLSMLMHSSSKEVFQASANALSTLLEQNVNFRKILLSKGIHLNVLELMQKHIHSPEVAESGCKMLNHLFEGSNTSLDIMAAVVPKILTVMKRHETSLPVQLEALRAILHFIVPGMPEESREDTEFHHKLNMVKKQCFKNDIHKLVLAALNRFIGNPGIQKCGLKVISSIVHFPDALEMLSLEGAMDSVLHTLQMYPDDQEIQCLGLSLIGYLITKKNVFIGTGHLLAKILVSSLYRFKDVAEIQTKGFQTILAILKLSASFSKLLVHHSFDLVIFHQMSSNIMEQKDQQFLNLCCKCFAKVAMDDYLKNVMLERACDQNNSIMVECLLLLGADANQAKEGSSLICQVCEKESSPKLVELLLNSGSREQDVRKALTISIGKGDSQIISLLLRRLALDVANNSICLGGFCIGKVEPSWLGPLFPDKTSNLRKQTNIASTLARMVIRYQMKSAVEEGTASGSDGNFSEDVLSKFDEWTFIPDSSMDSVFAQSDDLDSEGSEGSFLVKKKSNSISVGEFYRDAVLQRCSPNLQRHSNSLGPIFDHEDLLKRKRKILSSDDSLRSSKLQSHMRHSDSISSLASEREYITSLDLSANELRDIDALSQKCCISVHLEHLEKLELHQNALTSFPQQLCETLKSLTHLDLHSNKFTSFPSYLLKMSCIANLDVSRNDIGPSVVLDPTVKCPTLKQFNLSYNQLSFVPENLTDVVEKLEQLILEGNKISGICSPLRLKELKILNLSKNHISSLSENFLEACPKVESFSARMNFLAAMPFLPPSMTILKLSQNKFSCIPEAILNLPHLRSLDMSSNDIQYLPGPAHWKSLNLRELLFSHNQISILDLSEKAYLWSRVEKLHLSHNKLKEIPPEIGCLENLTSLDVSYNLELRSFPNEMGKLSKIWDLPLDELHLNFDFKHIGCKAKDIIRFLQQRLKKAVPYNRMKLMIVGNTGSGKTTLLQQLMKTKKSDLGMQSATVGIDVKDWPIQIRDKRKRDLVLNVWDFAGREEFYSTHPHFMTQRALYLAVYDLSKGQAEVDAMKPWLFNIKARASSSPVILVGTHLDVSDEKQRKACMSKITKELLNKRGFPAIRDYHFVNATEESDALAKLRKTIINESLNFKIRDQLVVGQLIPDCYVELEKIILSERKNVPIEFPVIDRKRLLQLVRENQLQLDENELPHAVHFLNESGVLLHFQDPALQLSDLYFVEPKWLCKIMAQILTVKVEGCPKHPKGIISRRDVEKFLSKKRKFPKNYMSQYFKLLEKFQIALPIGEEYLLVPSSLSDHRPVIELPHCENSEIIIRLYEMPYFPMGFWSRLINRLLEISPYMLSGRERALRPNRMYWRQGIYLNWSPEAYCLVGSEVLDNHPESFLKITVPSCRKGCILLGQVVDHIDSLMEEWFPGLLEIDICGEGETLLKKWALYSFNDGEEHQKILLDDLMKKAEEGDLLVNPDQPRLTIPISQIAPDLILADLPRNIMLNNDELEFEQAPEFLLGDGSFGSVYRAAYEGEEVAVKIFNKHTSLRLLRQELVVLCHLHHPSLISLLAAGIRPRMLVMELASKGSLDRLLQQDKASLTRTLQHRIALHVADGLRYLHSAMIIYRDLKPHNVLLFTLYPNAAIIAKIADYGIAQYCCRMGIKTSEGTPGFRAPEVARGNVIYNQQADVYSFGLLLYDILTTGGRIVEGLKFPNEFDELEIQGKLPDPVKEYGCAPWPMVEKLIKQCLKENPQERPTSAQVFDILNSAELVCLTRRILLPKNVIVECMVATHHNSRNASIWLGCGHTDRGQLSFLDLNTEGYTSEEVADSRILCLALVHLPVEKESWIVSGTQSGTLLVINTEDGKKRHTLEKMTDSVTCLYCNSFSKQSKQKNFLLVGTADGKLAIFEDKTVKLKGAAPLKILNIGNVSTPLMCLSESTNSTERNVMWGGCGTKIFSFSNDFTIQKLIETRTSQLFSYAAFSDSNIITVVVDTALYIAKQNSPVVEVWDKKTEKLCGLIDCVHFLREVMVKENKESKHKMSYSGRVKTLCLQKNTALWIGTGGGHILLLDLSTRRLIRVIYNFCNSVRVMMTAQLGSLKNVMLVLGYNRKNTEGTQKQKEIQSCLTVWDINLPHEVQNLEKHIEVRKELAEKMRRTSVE

T1 sequence (Q5S007 whole entry G2019S): as the sequence (Q5S007 whole entry) above, with G2019S counted along it

Row | Compound | IC50 [1] | IC50 [2]
1 | COCC(C)n1c(C#N)cc2cnc(Nc3cn(C)nc3OC3COC3C)nc21 (single isomer, unassigned) [Example 87, 7-[(1S)-2-methoxy-1-methyl-ethyl]-2-[[1-methyl-3-[(2S, 3R)-2-methyloxetan-3-yl]oxy-pyrazol-4-yl]amino]pyrrolo[2,3-d]pyrimidine-6-carbonitrile or 7-[(1S)-2-methoxy-1-methyl-ethyl]-2-[[1-methyl-3-[(2R, 3S)-2-methyloxetan-3-yl]oxy-pyrazol-4-yl]amino]pyrrolo[2,3-d]pyrimidine-6-carbonitrile] | 5 nM | 
2 | CC(=O)N1CC(Oc2nn(C)cc2Nc2ncc3cc(C#N)n([C@H]4COC[C@@H]4C)c3n2)C1(C)C (single isomer, unassigned) [Example 18] | 2 nM | 2 nM
3 | CC(=O)N1CC(Oc2nn(C)cc2Nc2ncc3cc(C#N)n([C@H]4COC[C@@H]4C)c3n2)C1(C)C (single isomer, unassigned) [Example 17] | 3 nM | 3 nM
4 | [2H]C([2H])([2H])n1cc(Nc2ncc3cc(C#N)n(C(C)COC)c3n2)c(OC2COC2C)n1 (single isomer, unassigned) [Example 89, 7-[(1S)-2-methoxy-1-methyl-ethyl]-2-[[3-[(2S,3R)-2-methyloxetan-3-yl]oxy-1-(methyl-d3)pyrazol-4-yl]amino]pyrrolo[2,3-d]pyrimidine-6-carbonitrile or 7-[(1S)-2-methoxy-1-methyl-ethyl]-2-[[3-[(2R,3S)-2-methyloxetan-3-yl]oxy-1-(methyl-d3)pyrazol-4-yl]amino]pyrrolo[2,3-d]pyrimidine-6-carbonitrile] | 5 nM | 

From patent EP4105218A1, “SUBSTITUTED PYRROLO[2,3-D] PYRIMIDINES, THEIR PREPARATION AND THEIR THERAPEUTIC APPLICATION” (SANOFI, priority 2021, dated 2022)
